# Source: paper PMC9496282, “Analysis of Phosphatase Activity in a Droplet-Based Microfluidic Chip” (Biosensors, 2022)
# Biological target: T1, dual specificity phosphatase 22 (DUSP22) (Homo sapiens, UniProt Q9NRW4)
# T1 construct: recombinant DUSP22 from pET-28a(+)-DUSP22, purified from E. coli BL21(DE3)
# T1 sequence (Q9NRW4 2-184): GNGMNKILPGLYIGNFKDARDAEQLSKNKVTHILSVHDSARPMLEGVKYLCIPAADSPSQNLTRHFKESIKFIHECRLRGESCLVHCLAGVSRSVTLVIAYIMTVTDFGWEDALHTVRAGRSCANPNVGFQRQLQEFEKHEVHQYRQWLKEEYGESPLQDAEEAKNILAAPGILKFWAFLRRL
# Experiment: fluorescent 3-OMFP phosphatase inhibition assay in droplet microfluidic chip (microwell plate IC50 […])
# Type: biochemical
structure (smiles),measurement,value
"CCN(N=O)c1ccc(O)c(O)c1 [ethyl-3,4-dephostatin]",IC50,5.79 ± 1.09 µM
